The results in this text go back to US9345742B2, “Aminostatin derivatives for the treatment of arthrosis” (MERCK PATENT GMBH, priority 2011, dated 2016).

Numbered stars: 1 amine (or outer) side, 2 acyl side, 3 side chain; on linkers, the order of the positions; unused ones are H or OH. Square brackets hold non-standard residues; d marks the D form. Peptide text beside a SMILES is read from it. * marks the point of attachment. X1 = N[C@@H](CC(=O)[*:2])[C@H](Cc1ccccc1)N[*:1]; Isovaleryl = CC(C)CC(=O)*; Abu = CC[C@H](N)C(=O)O; Ac3c = NC1(C(=O)O)CC1; Boc = CC(C)(C)OC(=O)*

Experiment [1] has as its target cathepsin D isolated from the human liver (Homo sapiens (Human), UniProt P07339). The experiment is described as follows: In-vitro fluorescence assay for identification of cathepsin D inhibitors. In kind it is biochemical. The settings on record: cathepsin D 1.4 nM, pH 5.5; read-out: CatD assay IC50-. As for the experimental part:
In order to identify modulators of cathepsin D activity, a continuous enzymatic test was carried out with a synthetic peptide which carries a fluorescent group (MCA=(7-methoxycoumarin-4-yl)acetyl) which is quenched by energy transfer from a Dpn (2,4 dinitrophenyl) group on the same molecule, in Greiner 384-well nb microtitre plates. Cleavage of the peptidic substrate by cathepsin D causes an increase in the fluorescence intensity. In order to determine the efficacy of substances, the time-dependent increase in the fluorescence intensity in the presence of the substance was compared with the time-dependent increase in fluorescence in the absence of substances. The reference substance used was pepstatin A (Sigma-Aldrich). The substrate used was […](Dnp)d-R—NH2 (Enzo Life Sciences, Lörrach). The enzyme employed was cathepsin D isolated from the human liver (Sigma-Aldrich) in a final concentration of 1.4 nM. The test was carried out in 100 mM sodium acetate buffer, 1.25% (v/v) of DMSO, 0.25% (w/v) of Chaps, pH 5.5. 2 μl of each substance solution with serially diluted substance concentration were added to in each case 4 μl of cathepsin D solution and incubated at room temperature for 10 min. The reaction was started by addition of 2 μl of substrate solution (final concentration 5 μM). After carrying out a starting-point fluorescence measurement (excitation wavelength 340 nm/emission wavelength 450 nm) using an Envision multilabel reader (Perkin Elmer), the reaction was incubated at room temperature for 60 min. The amount of peptide fragment cleaved off during the reaction time was subsequently measured by determination of the increase in the fluorescence intensity at 450 nm (excitation wavelength 340 nm).

In a further experiment the target is recombinant human renin (Homo sapiens (Human), UniProt P00797). The experiment is described as follows: In-vitro fluorescence assay for identification of renin-inhibitory activity. In kind it is biochemical. Particulars: recombinant human renin 10 nM, pH 7.2; read-out: Renin selectivity IC50. On the procedure:
In order to identify modulators of renin activity, a continuous enzymatic test was carried out with a synthetic peptide which carries a fluorescent group Edans (=(5-(aminoethyl)aminonaphthalenesulfonate) which is quenched by energy transfer from a Dabcyl (4′-dimethylaminoazobenzene-4-carboxylate) group on the same molecule, in Greiner 384-well microtitre plates. Cleavage of the peptidic substrate by renin causes an increase in the fluorescence intensity. In order to determine the efficacy of substances, the time-dependent increase in the fluorescence intensity in the presence of the substance was compared with the time-dependent increase in fluorescence in the absence of substances. The reference substance used was renin inhibitor 2 (Z-Arg-Arg-Pro-Phe-His-Sta-Ile-His N-Boc-Lys methyl ester Z) (Sigma-Aldrich). The substrate used was renin FRET substrate I (DABCYL-g-Abu-[…]EDANS) (Anaspec, Fremont Calif.). The enzyme employed was recombinant human renin (Proteos, Kalamazoo, Mich.) in a final concentration of 10 nM. The test was carried out in 50 mM Mops buffer, 1.5% (v/v) of DMSO, 0.1% (w/v) of Igepal®, pH 7.2, 0.5% (w/v) of BSA. 2 μl of each substance solution with serially diluted substance concentration were added to in each case 4 μl of renin solution and incubated at room temperature for 15 min. The reaction was started by addition of 4 μl of substrate solution (final concentration 5 μM). After carrying out a starting-point fluorescence measurement (excitation wavelength 340 nm/emission wavelength 495 nm) using an Envision multilabel reader (Perkin Elmer), the reaction was incubated at 37° C. for 60 min. The amount of peptide fragment cleaved off during the reaction time was subsequently measured by determination of the increase in the fluorescence intensity at 495 nm (excitation wavelength 340 nm).

Chain of cathepsin D isolated from the human liver (P07339 65-161): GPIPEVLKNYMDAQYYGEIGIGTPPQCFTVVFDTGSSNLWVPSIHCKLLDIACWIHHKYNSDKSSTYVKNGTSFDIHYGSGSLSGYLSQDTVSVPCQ
Chain of cathepsin D isolated from the human liver (P07339 169-412): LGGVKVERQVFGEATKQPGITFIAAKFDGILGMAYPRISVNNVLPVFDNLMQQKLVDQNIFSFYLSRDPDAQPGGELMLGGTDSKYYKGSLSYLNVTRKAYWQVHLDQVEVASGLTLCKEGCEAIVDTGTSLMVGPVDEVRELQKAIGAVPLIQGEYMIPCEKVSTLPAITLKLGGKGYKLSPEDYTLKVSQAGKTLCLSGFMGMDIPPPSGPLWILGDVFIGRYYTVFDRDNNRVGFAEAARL
Chain of recombinant human renin (P00797 67-406): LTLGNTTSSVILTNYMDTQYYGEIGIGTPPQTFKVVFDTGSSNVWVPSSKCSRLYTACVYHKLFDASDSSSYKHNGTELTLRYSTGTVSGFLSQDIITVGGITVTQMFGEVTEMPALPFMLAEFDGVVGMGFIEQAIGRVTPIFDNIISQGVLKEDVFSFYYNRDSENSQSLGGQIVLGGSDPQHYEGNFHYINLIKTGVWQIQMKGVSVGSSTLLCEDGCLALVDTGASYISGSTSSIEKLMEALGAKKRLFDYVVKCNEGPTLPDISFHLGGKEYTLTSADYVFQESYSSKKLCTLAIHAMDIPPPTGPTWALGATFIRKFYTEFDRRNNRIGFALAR

Turning to `CC[C@H](C)[C@H](NC(=O)C[C@H](N)[C@H](Cc1ccccc1)NC(=O)[C@@H](NC(=O)[C@H](CC(C)C)NC(=O)CC(C)C)C(C)C)C(=O)N[C@H](C(=O)OC)C(C)C` [Compound 10, Methyl (S)-2-[(2S,3S)-2-((3S,4S)-3-amino-4-{(S)-3-methyl-2-[(S)-4-methyl-2-(3-methyl-butyrylamino)pentanoylamino]-1-oxobutylamino}-5-phenylpentanoylamino)-3-methylpentanoylamino]-3-methyl-butyrate] (Isovaleryl-LV[X1]IV-OMe), in experiment [1], the IC50 came out at 5.1 nM. For `CCOC(=O)C1(NC(=O)[C@@H](NC(=O)C[C@H](N)[C@H](Cc2ccccc2)NC(=O)[C@@H](NC(=O)[C@H](CC(C)C)NC(=O)CC(C)C)C(C)C)[C@@H](C)CC)CC1` [Compound 12, Ethyl 1-[(2S,3S)-2-((S)-3-(S)-amino-4-((S)-3-methyl-2-[(S)-4-methyl-2-(3-methyl-butyrylamino)pentanoylamino]butyryl-amino}-5-phenylpentanoylamino)-3-methyl-pentanoylamino] cyclopropanecarboxylate] (Isovaleryl-LV[X1]I[Ac3c]-OEt), the values for the IC50 (in experiment [1]; at recombinant human renin) were 110 nM and greater than 30000 nM, respectively. For `CC[C@H](NC(=O)[C@H](CC(C)C)NC(=O)CC(C)C)C(=O)N[C@@H](Cc1ccccc1)[C@@H](N)CC(=O)NCCc1ccc(Cl)c(Cl)c1` [Compound 6, N-[2-(3,4-Dichlorophenyl)ethyl]-(3S,4S)-3-amino-4-{(S)-2-[(S)-4-methyl-2-(3-methyl-butyrylamino)pentanoylamino]butyryl-amino}-5-phenylpentanamide], in that order: 1200 nM and greater than 30000 nM.

With `CC[C@H](C)[C@H](NC(=O)C[C@H](N)[C@H](Cc1ccccc1)NC(=O)[C@H](Cc1ccccc1)NC(=O)[C@H](CC(C)C)NC(=O)CC(C)C)C(=O)N[C@H](C(=O)OC)C(C)C` [Compound 11, Methyl (S)-2-[(2S,3S)-2-((3S,4S)-3-amino-4-{(S)-2-[(S)-4-methyl-2-(3-methylbutyrylamino)pentanoylamino]-3-phenyl-propionylamino}-5-phenylpentanoylamino)-3-methylpentanoylamino]-3-methyl-butyrate] (Isovaleryl-LF[X1]IV-OMe), the IC50 in experiment [1] is 610 nM; at recombinant human renin, greater than 30000 nM. Consider `CC[C@H](NC(=O)[C@@H](N)CC(C)C)C(=O)N[C@@H](Cc1ccccc1)[C@@H](N)CC(=O)N[C@H](C(=O)N[C@H](C(=O)OC)C(C)C)[C@@H](C)CC` [Compound 2, Methyl (S)-2-((2S,3S)-2-{(3S,4S)-3-amino-4-[(S)-2-((S)-2-amino-4-methylpentanoylamino)butyrylamino]-5-phenylpentanoylamino}-3-methylpentanoylamino)-3-methyl-butyrate] (H-L[Abu][X1]IV-OMe), for which the IC50 was 2000 nM in experiment [1] and greater than 30000 nM at recombinant human renin. As for `CC[C@H](C)[C@H](NC(=O)C[C@H](N)[C@H](Cc1ccccc1)NC(=O)[C@@H](NC(=O)[C@H](Cc1ccccc1)NC(=O)CC(C)C)C(C)C)C(=O)N[C@H](CO)C(C)C` [Compound 42, N-[(1S,2S)-1-((S)-1-Hydroxymethyl-2-methylpropylcarbamoyl)-2-methylbutyl]-(S)-3-(S)-amino-4-{(S)-3-methyl-2-[(S)-2-(3-methylbutyrylamino)-3-phenylpropionylamino]butyrylamino}-5-phenylpentanamide], in experiment [1], the IC50 was determined as 3.6 nM. On the same count and under the same terms, under `CC[C@H](C)[C@H](NC(=O)C[C@H](N)[C@H](Cc1ccccc1)NC(=O)[C@@H](NC(=O)[C@@H](N)Cc1ccccc1)C(C)C)C(=O)N[C@H](C(=O)OC)C(C)C` [Compound 21, Methyl (S)-2-((2S,3S)-2-{(3S,4S)-3-amino-4-[(S)-2-((S)-2-amino-3-phenylpropionylamino)-3-methylbutyrylamino]-5-phenyl-pentanoylamino)-3-methylpentanoyl-amino)-3-methylbutyrate] (H-FV[X1]IV-OMe) stands 81 nM; under `CC[C@H](C)[C@H](NC(=O)C[C@H](N)[C@H](Cc1ccccc1)NC(=O)[C@@H](NC(=O)[C@H](Cc1ccccc1)NC(=O)OC(C)(C)C)C(C)C)C(=O)N[C@H](C(=O)OC)C(C)C` [Compound 20, Methyl (S)-2-((2S,3S)-2-{(3S,4S)-3-amino-4-[(S)-2-((S)-2-tert-butoxycarbonylamino-3-phenylpropionylamino)-3-methylbutyrylamino]-5-phenylpentanoylamino}-3-methyl-pentanoylamino)-3-methylbutyrate] (Boc-FV[X1]IV-OMe), 1 nM; under `CC[C@H](C)[C@H](NC(=O)C[C@H](N)[C@H](Cc1ccccc1)NC(=O)[C@H](CC(C)C)NC(=O)CC(C)C)C(=O)N[C@H](C(=O)OC)C(C)C` [Compound 3, Methyl (S)-2-((2S,3S)-2-{(3S,4S)-3-amino-4-[(S)-4-methyl-2-(3-methylbutyrylamino)pentanoylamino]-5-phenylpentanoylamino}-3-methylpentanoylamino)-3-methyl-butyrate], 5500 nM. Same read-out and setting: under `CC[C@H](C)[C@H](NC(=O)C[C@H](N)[C@H](Cc1ccccc1)NC(=O)[C@@H](NC(=O)COc1ccc(Cl)cc1Cl)C(C)C)C(=O)N[C@H](C(=O)OC)C(C)C` [Compound 22, Methyl (S)-2-[(2S,3S)-2-((3S,4S)-3-amino-4-{(S)-2-[2-(2,4-dichlorophenoxy)acetylamino]-3-methylbutyrylamino)-5-phenyl-pentanoylamino)-3-methylpentanoyl-amino]-3-methylbutyrate] stands 27 nM. Still for that read-out and setting: next, `CC[C@H](NC(=O)[C@H](CC(C)C)NC(=O)CC(C)C)C(=O)N[C@@H](Cc1ccccc1)[C@@H](N)CC(=O)N[C@H](C(=O)N[C@H](C(=O)OC)C(C)C)[C@@H](C)CC` [Compound 4, Methyl (S)-2-[(2S,3S)-2-((3S,4S)-3-amino-4-{(S)-2-[(S)-4-methyl-2-(3-methylbutyrylamino)pentanoylamino]-1-oxobutylamino}-5-phenylpentanoylamino)-3-methyl-pentanoylamino]-3-methylbutyrate] (Isovaleryl-L[Abu][X1]IV-OMe): 97 nM; `CC[C@H](C)[C@H](NC(=O)C[C@H](N)[C@H](Cc1ccccc1)NC(=O)[C@@H](NC(=O)[C@H](CC(C)C)NC(=O)CC(C)C)C(C)C)C(=O)N[C@H](CO)C(C)C` [Compound 34, N-[(1S,2S)-1-((S)-1-Hydroxymethyl-2-methylpropylcarbamoyl)-2-methylbutyl]-(S)-3-(S)-amino-4-{(S)-3-methyl-2-[(S)-4-methyl-2-(3-methylbutyrylamino)pentanoyl-amino]butyrylamino}-5-phenylpentanamide]: 6.2 nM; `CC[C@H](C)[C@H](NC(=O)C[C@H](N)[C@H](Cc1ccccc1)NC(=O)[C@@H](NC(=O)[C@H](CC(C)C)NC(=O)CC(C)C)C(C)C)C(=O)N[C@H](C(=O)OC)[C@@H](C)CC` [Compound 13, Methyl (2S,3S)-2-[(S)-2-((S)-3-(S)-amino-4-{(S)-3-methyl-2-[(S)-4-methyl-2-(3-methyl-butyrylamino)pentanoylamino]butyryl-amino}-5-phenylpentanoylamino)-3-methyl-1-(S)-oxopentylamino]-3-methylpentanoate] (Isovaleryl-LV[X1]II-OMe): 47 nM. Take `CC[C@H](C)[C@H](NC(=O)C[C@H](N)[C@H](Cc1ccccc1)NC(=O)[C@@H](NC(=O)[C@H](CC(C)C)NC(=O)OC(C)(C)C)C(C)C)C(=O)N[C@H](C(=O)OC)C(C)C` [Compound 16, Methyl (S)-2-((2S,3S)-2-{(3S,4S)-3-amino-4-[(S)-2-((S)-2-tert-butoxycarbonylamino-4-methylpentanoylamino)-3-methylbutyrylamino]-5-phenylpentanoylamino}-3-methyl-pentanoylamino)-3-methylbutyrate] (Boc-LV[X1]IV-OMe): the 50% inhibitory concentration (IC50) in experiment [1] turned out to be 36 nM.

In general, IC50 refers to the midpoint of a concentration-inhibition curve.
